Test results from patent publication US20240018135A1, “COMPOUND HAVING INHIBITORY ACTIVITY AGAINST O-GLUSACASE AND USE THEREOF” (MEDIFRON DBT INC., priority 2020, published 2024).

Experiments:
human O-GlcNAcase = human O-GlcNAcase (Homo sapiens (Human), UniProt O60502); settings: cited from earlier work
[1] = molecular target: Human OGA (recombinant hOGA protein) (Homo sapiens (Human), UniProt O60502); test: Human OGA enzyme activity assay (fluorescence, 4-Methylumbelliferyl N-acetyl-β-D-glucosaminide substrate); assay type: biochemical; settings: for IC50: Table 1; for % of inhibition: Table 1, test concentration not given
Chain of Human OGA (recombinant hOGA protein) (O60502 whole entry): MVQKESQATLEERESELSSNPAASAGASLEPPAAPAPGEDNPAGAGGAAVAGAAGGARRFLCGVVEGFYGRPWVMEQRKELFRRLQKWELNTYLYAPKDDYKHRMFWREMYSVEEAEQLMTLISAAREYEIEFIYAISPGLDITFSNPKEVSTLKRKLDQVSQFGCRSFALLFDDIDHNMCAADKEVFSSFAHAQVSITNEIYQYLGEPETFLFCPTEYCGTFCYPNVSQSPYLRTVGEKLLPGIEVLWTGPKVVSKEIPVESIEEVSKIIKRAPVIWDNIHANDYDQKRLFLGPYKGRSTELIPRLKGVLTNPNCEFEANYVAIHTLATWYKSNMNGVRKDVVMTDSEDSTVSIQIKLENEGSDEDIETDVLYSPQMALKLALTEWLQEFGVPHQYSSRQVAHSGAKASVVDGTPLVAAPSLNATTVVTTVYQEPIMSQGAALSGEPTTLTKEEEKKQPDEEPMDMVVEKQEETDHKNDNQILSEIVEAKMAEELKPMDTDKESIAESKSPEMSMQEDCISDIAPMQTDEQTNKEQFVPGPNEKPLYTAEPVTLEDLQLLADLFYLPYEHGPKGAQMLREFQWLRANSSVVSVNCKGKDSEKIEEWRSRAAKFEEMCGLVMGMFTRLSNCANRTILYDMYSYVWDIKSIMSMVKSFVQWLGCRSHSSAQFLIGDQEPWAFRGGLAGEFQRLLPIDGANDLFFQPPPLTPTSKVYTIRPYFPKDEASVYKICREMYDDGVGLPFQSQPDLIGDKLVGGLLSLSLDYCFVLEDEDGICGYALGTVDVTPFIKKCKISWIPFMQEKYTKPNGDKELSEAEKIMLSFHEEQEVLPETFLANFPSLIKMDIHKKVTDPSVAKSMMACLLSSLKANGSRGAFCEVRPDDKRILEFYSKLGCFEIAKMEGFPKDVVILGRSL

Chain of human O-GlcNAcase (O60502 whole entry): as above

| Compound | melting point [°C] | IC50 [1] [nM] | % of inhibition [1] [%] | Ki (human O-GlcNAcase) [nM] |
| --- | --- | --- | --- | --- |
| CC(=O)N[C@H]1c2nc(CC(=O)O)cn2[C@H](CO)[C@@H](O)[C@@H]1O [gluco-nagstatin] |  |  |  | 420 |
| COc1ccc(CCNC(=O)CN2CCN(Cc3cnc(NC(C)=O)s3)CC2)cc1 [Compound A-8, 2-(4-((2-acetamidothiazol-5-yl)methyl)piperazin-1-yl)-N-(4-methoxyphenethyl) acetamide] | 177 to 179 | 630 | 85.4 |  |
| CC(=O)Nc1ncc(CN2CCN(CC(=O)NCc3ccc(-c4ccccc4)cc3)CC2)s1 [Compound A-40, N-([1,1′-biphenyl]-4-ylmethyl)-2-(4-((2-acetamidothiazol-5-yl)methyl)piperazin-1-yl)acetamide] | 167 to 170 | 210 | 97.7 |  |
| CC(=O)Nc1ncc(CN2CCN(CC(=O)Nc3nccs3)CC2)s1 [Compound A-21, 2-(4-((2-acetamidothiazol-5-yl)methyl)piperazin-1-yl)-N-(thiazol-2-yl)acetamide] | 237 to 240 |  | 59.1 |  |
| CC(=O)Nc1ncc(CN2CCN(CC(=O)Nc3nc4ccccc4s3)CC2)s1 [Compound A-27, 2-(4-((2-acetamidothiazol-5-yl)methyl)piperazin-1 yl)-N-(benzo[d]thiazol-2-yl)acetamide] | 248 to 249 |  | 46.2 |  |
| CC(=O)Nc1ncc(CN2CCN(CC(=O)Nc3ccccc3)CC2C)s1 (stereo not shown) [Compound A-32, 2-(4-((2-acetamidothiazol-5 yl)methyl)-3-methylpiperazin-1-yl)-N-phenylacetamide] | 174 to 176 | 240 | 97.0 |  |
| CC(=O)Nc1ncc(CN2CCN(CC(=O)Nc3ccc(N4CCN(C(C)=O)CC4)cc3)CC2C)s1 (stereo not shown) [Compound A-37, 2-(4-((2-acetamidothiazol-5-yl)methyl)-3-methylpiperazin-1-yl)-N-(4-(4-acetylpiperazin-1-yl)phenyl)acetamide] | 232 | 70 | 98.4 |  |
| CC(=O)Nc1ncc(CN2CCN(CC(=O)Nc3cccc(C)c3)CC2)s1 [Compound A-5, 2-(4-((2-acetamidothiazol-5-yl)methyl)piperazin-1-yl)-N-(m-tolyl)acetamide] | 202 to 204 |  | 62.4 |  |
| CC(=O)Nc1ncc(CN2CCN(CC(=O)Nc3nc4c(Cl)cccc4s3)CC2)s1 [Compound A-30, 2-(4-((2-acetamidothiazol-5-yl)methyl)piperazin-1-yl)-N-(4-chlorobenzo[d]thiazol-2-yl)acetamide] | 255 to 257 |  | 42.6 |  |
| CC(=O)Nc1ncc(CN2CCN(CC(=O)Nc3ccc4ncccc4c3)CC2)s1 [Compound A-22, 2-(4-((2-acetamidothiazol-5-yl)methyl)piperazin-1-yl)-N-(quinolin-6-yl)acetamide] | 248 to 250 | 900 | 97.5 |  |
| CC(=O)Nc1ncc(CN2CCN(CC(=O)Nc3ccccc3C)CC2)s1 [Compound A-4, 2-(4-((2-acetamidothiazol-5-yl)methyl)piperazin-1-yl)-N-(o-tolyl)acetamide] | 194 to 196 |  | 47.6 |  |
| CC(=O)Nc1ncc(CN2CCN(CC(=O)NC3CCCCC3)CC2)s1 [Compound A-20, 2-(4-((2-acetamidothiazol-5-yl)methyl)piperazin-1-yl)-N-cyclohexylacetamide] | 198 to 200 | 1400 | 89.0 |  |
| CC(=O)Nc1ncc(CN2CCN(CC(=O)N(C)c3ccccc3)CC2)s1 [Compound A-31, 2-(4-((2-acetamidothiazol-5-yl)methyl)piperazin-1-yl)-N-methyl-N-phenylacetamide] | 208 to 210 |  | 50.4 |  |
| CC(=O)Nc1ncc(CN2CCN(CC(=O)Nc3nc4ccccc4[nH]3)CC2)s1 [Compound A-26, 2-(4-((2-acetamidothiazol-5-yl)methyl)piperazin-1-yl)-N-(1H-benzo[d]imidazol-2-yl)acetamide] | 233 to 236 |  | 62.6 |  |
| CCOc1ccc2nc(NC(=O)CN3CCN(Cc4cnc(NC(C)=O)s4)CC3)sc2c1 [Compound A-29, 2-(4-((2-acetamidothiazol-5 yl)methyl)piperazin-1 yl)-N-(6-ethoxybenzo[d]thiazol-2-yl)acetamide] | 244 to 246 |  | 44.6 |  |
| CC(=O)Nc1ncc(CN2CCN(CC(=O)Nc3ccc(C)cc3)CC2)s1 [Compound A-3, 2-(4-((2-acetamidothiazol-5-yl)methyl)piperazin-1-yl)-N-(p-tolyl)acetamide] | 213 to 217 |  | 70.7 |  |
| CC(=O)Nc1ncc(CN2CCC(=CC(=O)Nc3ccccc3)CC2)s1 [Compound C-1, 2-(1-((2-acetamidothiazol-5-yl)methyl)piperidin-4-ylidene)-N-phenylacetamide] | 184 to 185 | 310 | 96.2 |  |
| COc1cccc(NC(=O)CN2CCN(Cc3cnc(NC(C)=O)s3)CC2)c1 [Compound A-9, 2-(4-((2-acetamidothiazol-5 yl)methyl)piperazin-1-yl)-N-(3-methoxyphenyl) acetamide.] | 210 to 212 |  | 59.9 |  |
| CC(=O)Nc1ccc(NC(=O)CN2CCN(Cc3cnc(NC(C)=O)s3)CC2)cc1 [Compound A-14, N-(4-acetamidophenyl)-2-(4-((2-acetamidothiazol-5-yl)methyl)piperazin-1-yl)acetamide] | 234 to 237 | 1250 | 80.0 |  |
| CC(=O)Nc1ncc(CN2CCN(CC(=O)Nc3cccc(C)n3)CC2)s1 [Compound A-16] | 224 to 228 |  | 38.6 |  |
| CC(=O)Nc1ncc(CN2CCN(CC(=O)Oc3ccccc3)CC2)s1 [Compound A-2, phenyl 2-(4-((2-acetamidothiazol-5-yl)methyl)piperazin-1-yl)acetate] | 185 to 194 |  | 34.6 |  |
| CC(=O)Nc1ncc(CN2CCN(CC(=O)Nc3ccc(C(C)C)cc3)CC2)s1 [Compound A-6, 2-(4-((2-acetamidothiazol-5-yl)methyl)piperazin-1-yl)-N-(4-isopropylphenyl) acetamide] | 173 to 176 |  | 79.2 |  |
| CC(=O)Nc1ncc(CN2CCN(CC(=O)Nc3cccc4ccccc34)CC2)s1 [Compound A-24, 2-(4-((2-acetamidothiazol-5-yl)methyl)piperazin-1-yl)-N-(naphthalen-1-yl)acetamide] | 257 to 258 |  | 71.3 |  |
| CC(=O)Nc1ncc(CN2CCCC(C(=O)Nc3ccccc3)C2)s1 (stereo not shown) [Compound B-16, 1-((2-acetamidothiazol-5-yl)methyl)-N-phenylpiperidine-3-carboxamide] | 257 to 259 | 230 | 95.5 |  |

Further lines, with some results ahead:

| melting point [°C] | IC50 [1] [nM] | % of inhibition [1] [%] | Compound | Ki (human O-GlcNAcase) [nM] |
| --- | --- | --- | --- | --- |
| 127 to 129 | 340 | 96.7 | CC(=O)Nc1ncc(CN2CCCC(C(=O)Nc3ccc(F)cc3)C2)s1 (stereo not shown) [Compound B-17, 1-((2-acetamidothiazol-5-yl)methyl)-N-(4-fluorophenyl)piperidine-3-carboxamide] |  |
| 215 to 216 | 30 | 99.6 | CC(=O)Nc1ncc(CN2CCN(CC(=O)NCc3ccc(-c4ccccc4)cc3)CC2C)s1 (stereo not shown) [Compound A-41, N-([1,1′-biphenyl]-4-ylmethyl)-2-(4-((2-acetamidothiazol-5-yl)methyl)-3-methylpiperazin-1-yl)acetamide] |  |
| 176 to 178 | 1000 | 88.2 | CC(=O)Nc1ncc(CN2CCC(C(=O)NCc3ccccc3)CC2)s1 [Compound B-7, 1-((2-acetamidothiazol-5-yl)methyl)-N-benzylpiperidine-4-carboxamide] |  |
| 265 to 267 | 450 | 97.6 | CC(=O)Nc1ncc(CN2CCCC(C(=O)NC3CCCCC3)C2)s1 (stereo not shown) [Compound B-19, 1-((2-acetamidothiazol-5 yl)methyl)-N-cyclohexylpiperidine-3-carboxamide] |  |
| 211 to 213 | 1010 | 93.1 | CC(=O)Nc1ncc(CN2CCC(C(=O)NC(C)c3ccc4c(c3)OCO4)CC2)s1 (stereo not shown) [Compound B-9, 1-((2-acetamidothiazol-5-yl)methyl)-N-(1-(benzo[d][1,3]dioxol-5-yl)ethyl)piperidine-4-carboxamide] |  |
| 178 to 180 |  | 66.9 | CC(=O)Nc1ncc(CN2CCC(C(=O)Nc3cnccn3)CC2)s1 [Compound B-4, 1-((2-acetamidothiazol-5-yl)methyl)-N-(pyrazin-2-yl)piperidine-4-carboxamide] |  |
| 172 to 174 | 870 | 87.0 | CC(=O)Nc1ncc(CN2CCC(C(=O)Nc3ccccc3)CC2)s1 [Compound B-1, 1-((2-acetamidothiazol-5-yl)methyl)N-phenylpiperidine-4-carboxamide] |  |
| 258 to 260 | 270 | 91.0 | CC(=O)Nc1ncc(CN2CCC(C(=O)Nc3ccc(Cl)cc3)CC2)s1 [Compound B-2, 1-((2-acetamidothiazol-5-yl)methyl)-N-(4-chlorophenyl)piperidine-4-carboxamide] |  |
| 222 to 224 | 80 | 98.2 | COc1ccc(CNC(=O)C=C2CCN(Cc3cnc(NC(C)=O)s3)CC2)cc1 [Compound C-7, 2-(1-((2-acetamidothiazol-5-yl)methyl)piperidin-4-ylidene)-N-(4-methoxybenzyl)acetamide] |  |
| 215 to 217 | 860 | 93.9 | COc1ccc(CNC(=O)C2CCN(Cc3cnc(NC(C)=O)s3)CC2)cc1 [Compound B-8, 1-((2-acetamidothiazol-5-yl)methyl)-N-(4-methoxybenzyl)piperidine-4-carboxamide] |  |
